This is an account of results in patent publication US20090298797A1, “COMBINATION THERAPY FOR THE TREATMENT OF INFLUENZA” (priority 2008, published 2009).

The subject of experiment [1] is influenza A virus strain A/Vietnam/1194/04 (H5N1). The arrangement: species or system BALB/c mice. The note with it: mouse, in vivo.
A further experiment concerns influenza A/H2N2 virus. The note with it: mouse, in vivo; cited from earlier work.
In experiment [2] the test system is influenza A virus strain A/Vietnam/1194/04 (H5N1). The arrangement: species or system BALB/c mice. Particulars: mouse, in vivo. This is another data set of the same source.
The subject of experiment [3] is IL-1, IL-6, IFN-γ, TNF-α, MIP-1, PGE2, leukotriene. The experiment can be described thus: ELISA of pro-inflammatory cytokines, chemokines, PGE2 and leukotriene in tracheal-pulmonary lavage. The format is in vivo, BALB/c mice. For orientation: ELISA stands for enzyme-linked immunosorbent assay.

Several values for one entry are separate records, joined by “and”; a condition that tells them apart may be missing. Equal entries are not always repeated.

Consider `Cc1ccc(-c2cc(C(F)(F)F)nn2-c2ccc(S(N)(=O)=O)cc2)cc1` [celecoxib], for which the mean survival time result in experiment [1] was “about 8.5 days”.
`Cc1ccc(C)c(OCCCC(C)(C)C(=O)O)c1` [gemfibrozil]: in experiment [1], the mean survival time result is “about 7.5 days” and the survival entry was “no significant improvement”. Moreover, the “survival of mice infected by influenza A/H2N2 virus” value in the experiment with influenza A/H2N2 virus is 52%.
Regarding `Nc1ccc(O)c(C(=O)O)c1` [mesalazine, 5-aminosalicylic acid], in experiment [1], the mean survival time entry is “about 8.5 days”.
Turning to `CC(=O)N[C@H]1[C@H]([C@H](O)[C@H](O)CO)OC(C(=O)O)=C[C@@H]1N=C(N)N` [zanamivir], in experiment [1], the mean survival time was 10.7 ± 1.6 days and 8.4 days; the survival entry is “All mice survived”; the survival rate stood at 13.3%. Further, the “TCID50 titer in the tracheal-pulmonary lavage” value in experiment [2] is on record as “below our detectable limit”. Further, the “levels of inflammatory markers IL-6, IFN-γ, TNF-α, MIP-1 and leukotriene in tracheal-pulmonary lavage” value in experiment [3] (compared with triple therapy (P<0.01 or 0.05) or uninfected normal mice) is “significantly higher”. Also, the “IL-1 levels in tracheal-pulmonary lavage” value in experiment [3] (zanamivir alone and controls vs triple therapy, P>0.05) is “only slightly lower”.
